According to patent US20210009564A1, “CALPAIN MODULATORS AND THERAPEUTIC USES THEREOF” (BLADE THERAPERTICS, INC., priority 2018, published 2021):

Experiments:
[1] = target: T1, Human Calpain 2/NS1 (Homo sapiens, UniProt P17655); assay: Calpain inhibition, continuous fluorescence (FRET substrate) assay, calpain 2; type: biochemical; conditions: SensoLyte 520 FRET substrate, 25C
T1 sequence (P17655 1-700): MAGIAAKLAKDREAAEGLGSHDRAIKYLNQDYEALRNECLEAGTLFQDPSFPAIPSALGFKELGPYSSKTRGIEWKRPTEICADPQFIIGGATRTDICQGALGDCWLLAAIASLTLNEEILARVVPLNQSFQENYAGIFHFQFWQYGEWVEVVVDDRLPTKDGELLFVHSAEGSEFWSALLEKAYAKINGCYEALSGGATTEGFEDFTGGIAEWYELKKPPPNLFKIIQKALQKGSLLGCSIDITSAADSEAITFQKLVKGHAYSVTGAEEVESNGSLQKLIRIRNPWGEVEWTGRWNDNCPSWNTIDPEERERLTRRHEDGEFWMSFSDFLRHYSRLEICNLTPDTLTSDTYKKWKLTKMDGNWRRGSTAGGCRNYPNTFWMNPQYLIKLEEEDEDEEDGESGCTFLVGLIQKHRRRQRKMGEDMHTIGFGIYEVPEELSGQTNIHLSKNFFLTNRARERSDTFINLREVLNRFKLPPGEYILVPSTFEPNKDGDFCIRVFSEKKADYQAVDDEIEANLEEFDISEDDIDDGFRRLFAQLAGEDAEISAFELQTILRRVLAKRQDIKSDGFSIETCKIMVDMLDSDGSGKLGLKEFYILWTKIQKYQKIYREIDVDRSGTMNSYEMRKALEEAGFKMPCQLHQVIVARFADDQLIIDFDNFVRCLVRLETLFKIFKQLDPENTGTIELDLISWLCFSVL
T1 sequence (P04632 1-268 partner): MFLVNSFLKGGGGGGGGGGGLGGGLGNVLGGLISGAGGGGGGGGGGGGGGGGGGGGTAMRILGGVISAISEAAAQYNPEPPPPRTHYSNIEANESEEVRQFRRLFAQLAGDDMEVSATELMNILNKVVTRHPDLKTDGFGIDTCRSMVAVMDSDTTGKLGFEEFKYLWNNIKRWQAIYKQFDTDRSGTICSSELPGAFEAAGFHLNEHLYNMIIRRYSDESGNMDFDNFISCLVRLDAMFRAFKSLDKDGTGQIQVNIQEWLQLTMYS
Protocol: (§1) Calpain 1, 2, and 9 activity and inhibition thereof was assessed by means of a continuous fluorescence assay. The SensoLyte 520 Calpain substrate (Anaspec Inc) was optimized for detecting calpain activity. This substrate contains an internally quenched 5-FAM/QXLTM 520 FRET pair. Calpains 1, 2, and 9 cleave the FRET substrate into two separate fragments resulting in an increase of 5-FAM fluorescence that is proportional to calpain activity Assays were typically setup in black 384-well plates using automated liquid handling as follows. Calpain assay base buffer typically contains 50 mM Tris, pH 7.5, 100 mM NaCl and 1 mM DTT. Inhibitors were serially diluted in DMSO and used to setup 2× mixtures with calpains in the aforementioned buffer. After incubation at ambient temperature (25C), the reaction was initiated by adding a 2× mix of the fluorescent peptide substrate and CaCl2) (required for in-situ calpain activation) in the same buffer. Reaction progress curve data were typically collected for 10 min using excitation/emission wavelengths of 490 nm/520 nm on SpectraMax i3× or the FLIPR-Tetra plate readers (Molecular Devices Inc). Reaction rates were calculated from progress curve slopes typically over 1-5 min. Dose response curves (rate vs. log inhibitor concentration) were typically fit to a 4-parameter logistic function to extract IC50 values.

[2] = system: Calpain activity in SH-SY5Y cells; assay: SH-SY5Y spectrin breakdown product (SBDP-150) western blot assay; type: cell-based; conditions: Homo sapiens; SH-SY5Y cells, 25 uM A23187, SBDP-150 western blot; read-out: SH-SY5Y Spectrin IC50
[3] = target: T2, Human Calpain 1/NS1 (Homo sapiens, UniProt P07384); assay: Calpain inhibition, continuous fluorescence (FRET substrate) assay, calpain 1; type: biochemical; conditions: SensoLyte 520 FRET substrate, 25C
T2 sequence (P07384 1-714): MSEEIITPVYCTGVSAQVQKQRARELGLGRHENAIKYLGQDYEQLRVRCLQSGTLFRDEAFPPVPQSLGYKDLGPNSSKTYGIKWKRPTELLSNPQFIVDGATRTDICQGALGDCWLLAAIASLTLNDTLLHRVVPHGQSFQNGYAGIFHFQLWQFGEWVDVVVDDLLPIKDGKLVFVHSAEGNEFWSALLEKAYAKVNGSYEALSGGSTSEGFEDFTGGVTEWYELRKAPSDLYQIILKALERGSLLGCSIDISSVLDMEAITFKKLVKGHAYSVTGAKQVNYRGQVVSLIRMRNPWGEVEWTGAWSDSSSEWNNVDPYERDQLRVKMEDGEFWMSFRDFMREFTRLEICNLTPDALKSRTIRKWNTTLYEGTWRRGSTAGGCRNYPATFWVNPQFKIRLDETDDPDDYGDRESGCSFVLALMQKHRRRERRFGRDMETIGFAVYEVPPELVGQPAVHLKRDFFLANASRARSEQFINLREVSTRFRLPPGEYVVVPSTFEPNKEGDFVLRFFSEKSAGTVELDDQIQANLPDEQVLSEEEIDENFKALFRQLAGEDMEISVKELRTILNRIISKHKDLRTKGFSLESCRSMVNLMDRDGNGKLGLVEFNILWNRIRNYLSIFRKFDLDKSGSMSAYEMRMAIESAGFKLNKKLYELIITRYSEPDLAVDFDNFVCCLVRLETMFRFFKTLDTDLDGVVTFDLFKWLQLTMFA
T2 sequence (P04632 1-268 partner): T1 sequence (P04632 1-268 partner)
Protocol: as §1

[4] = target: T3, Human Calpain 9/NS1 (Homo sapiens, UniProt O14815); assay: Calpain inhibition, continuous fluorescence (FRET substrate) assay, calpain 9; type: biochemical; conditions: SensoLyte 520 FRET substrate, 25C
T3 sequence (O14815 1-690): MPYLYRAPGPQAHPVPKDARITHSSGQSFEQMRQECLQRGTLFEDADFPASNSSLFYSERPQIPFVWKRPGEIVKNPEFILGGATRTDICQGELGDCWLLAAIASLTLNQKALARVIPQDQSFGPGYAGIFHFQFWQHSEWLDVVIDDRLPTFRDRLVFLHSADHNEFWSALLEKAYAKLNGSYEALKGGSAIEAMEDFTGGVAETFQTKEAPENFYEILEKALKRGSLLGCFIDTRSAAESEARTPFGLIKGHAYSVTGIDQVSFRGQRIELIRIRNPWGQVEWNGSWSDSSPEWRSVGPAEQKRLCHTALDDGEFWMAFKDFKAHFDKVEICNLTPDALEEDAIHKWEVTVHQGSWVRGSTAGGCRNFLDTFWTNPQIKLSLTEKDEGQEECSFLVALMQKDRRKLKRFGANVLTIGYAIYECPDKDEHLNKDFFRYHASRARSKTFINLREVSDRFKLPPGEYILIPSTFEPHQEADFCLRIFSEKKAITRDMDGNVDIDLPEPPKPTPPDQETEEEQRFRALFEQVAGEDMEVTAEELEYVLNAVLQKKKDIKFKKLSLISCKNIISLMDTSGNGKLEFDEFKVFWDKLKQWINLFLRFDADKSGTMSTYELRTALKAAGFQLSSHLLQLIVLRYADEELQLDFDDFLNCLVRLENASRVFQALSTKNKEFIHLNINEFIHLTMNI
T3 sequence (P04632 1-268 partner): T1 sequence (P04632 1-268 partner)
Protocol: as §1

[5] = system: Calpain activity in SH-SY5Y cells; assay: SH-SY5Y Suc-LLVY-AMC fluorescence assay; type: cell-based; conditions: Homo sapiens; SH-SY5Y cells, 100 uM Suc-LLVY-AMC; read-out: SH-SY5Y + AMC IC50

| Compound | IC50 [1] | IC50 [2] | IC50 [3] | IC50 [4] | IC50 [5] |
| --- | --- | --- | --- | --- | --- |
| Cc1nc(-c2c(F)cccc2F)c(C(=O)NC(Cc2ccccc2)C(=O)C(N)=O)o1 (stereo not drawn) [Compound 76, N-(4-AMINO-3,4-DIOXO-1-PHENYLBUTAN-2-YL)-4-(2,6-DIFLUOROPHENYL)-2-METHYLOXAZOLE-5-CARBOXAMIDE] | < 3 µM | 10 to 25 µM | < 3 µM | < 3 µM |  |
| O=C(O)C(=O)C(Cc1ccccc1)NC(=O)c1nsnc1-c1cccc2oc(=O)[nH]c12 (stereo not drawn) [Compound 106, 2-OXO-3-4-(2-OXO-2,3-DIHYDROBENZO[D]OXAZOL-4-YL)-1,2,5-THIADIAZOLE-3-CARBOXAMIDO)-4-PHENYLBUTANOIC ACID] | < 3 µM |  | < 3 µM | < 3 µM | 10 to 25 µM |
| O=C(O)C(=O)C(Cc1ccccc1)NC(=O)c1nsnc1-c1cccc2c1OC(F)(F)O2 (stereo not drawn) [Compound 107, 3-(4-(2,2-DIFLUOROBENZO[D][1,3]DIOXOL-4-YL)-1,2,5-THIADIAZOLE-3-CARBOXAMIDO)-2-OXO-4-PHENYLBUTANOIC ACID] | < 3 µM |  | < 3 µM | < 3 µM | 10 to 25 µM |
| Cc1nc(-c2c(F)cccc2F)c(C(=O)NC(Cc2ccccc2)C(=O)C(=O)O)o1 (stereo not drawn) [Compound 108, 3-(4-(2,6-DIFLUOROPHENYL)-2-METHYLOXAZOLE-5-CARBOXAMIDO)-2-OXO-4-PHENYLBUTANOIC ACID] | < 3 µM |  | < 3 µM | < 3 µM | < 10 µM |
| COc1cccc(-c2nc(C)oc2C(=O)NC(Cc2ccccc2)C(=O)C(N)=O)c1F (stereo not drawn) [Compound 75, N-(4-AMINO-3,4-DIOXO-1-PHENYLBUTAN-2-YL)-4-(2-FLUORO-3-METHOXYPHENYL)-2-METHYLOXAZOLE-5-CARBOXAMIDE] | < 3 µM | 10 to 25 µM | < 3 µM | < 3 µM |  |
| Cc1nc(-c2ccccc2F)c(C(=O)NC(Cc2ccc(F)cc2)C(=O)C(N)=O)o1 (stereo not drawn) [Compound 73, N-(4-AMINO-1-(4-FLUOROPHENYL)-3,4-DIOXOBUTAN-2-YL)-4-(2-FLUOROPHENYL)-2-METHYLOXAZOLE-5-CARBOXAMIDE] | < 3 µM | < 10 µM | < 3 µM | < 3 µM |  |
| Cn1cc(C(=O)NC(Cc2ccccc2)C(=O)C(N)=O)c(-c2cccc3cnn(C)c23)n1 (stereo not drawn) [Compound 33, N-(4-AMINO-3,4-DIOXO-1-PHENYLBUTAN-2-YL)-1-METHYL-3-(1-METHYL-1H-INDAZOL-7-YL)-1H-PYRAZOLE-4-CARBOXAMIDE] | < 3 µM | > 25 µM | 3 to 10 µM | < 3 µM |  |
| CN(C)NC(=O)C(=O)C(Cc1ccccc1)NC(=O)c1nsnc1-c1ccccc1 (stereo not drawn) [Compound 109, N-(4-(2,2-DIMETHYLHYDRAZINEYL)-3,4-DIOXO-1-PHENYLBUTAN-2-YL)-4-PHENYL-1,2,5-THIADIAZOLE-3-CARBOXAMIDE] | < 3 µM |  | < 3 µM | < 3 µM | 10 to 25 µM |
| NC(=O)C(=O)C(Cc1ccccc1)NC(=O)c1cn(C(F)F)nc1-c1cnc2ccccc2n1 (stereo not drawn) [Compound 25, N-(4-AMINO-3,4-DIOXO-1-PHENYLBUTAN-2-YL)-1-(DIFLUOROMETHYL)-3-(QUINOXALIN-2-YL)-1H-PYRAZOLE-4-CARBOXAMIDE] | < 3 µM | 10 to 25 µM | < 3 µM | < 3 µM |  |
| COC(=O)C(=O)C(Cc1ccccc1)NC(=O)c1cn(C)nc1-c1cccc(F)c1 (stereo not drawn) [Compound 74, METHYL-3-(3-(3-FLUOROPHENYL)-1-METHYL-1H-PYRAZOLE-4-CARBOXAMIDO)-2-OXO-4-PHENYLBUTANOATE] | < 3 µM | > 25 µM | < 3 µM | < 3 µM |  |

Continued, values first:

| IC50 [1] | IC50 [2] | IC50 [3] | IC50 [4] | IC50 [5] | Compound |
| --- | --- | --- | --- | --- | --- |
| < 3 µM |  | < 3 µM | < 3 µM | 10 to 25 µM | CONC(=O)C(=O)C(Cc1ccccc1)NC(=O)c1cccnc1-n1ccc(-c2ccccc2)n1 (stereo not drawn) [Compound 113, N-(4-(METHOXYAMINO)-3,4-DIOXO-1-PHENYLBUTAN-2-YL)-2-(3-PHENYL-1H-PYRAZOL-1-YL)NICOTINAMIDE] |
| < 3 µM |  | < 3 µM | < 3 µM | < 10 µM | NC(=O)C(=O)C(Cc1ccccc1)NC(=O)c1nsnc1-c1cccc2c1CC(=O)N2 (stereo not drawn) [Compound 115, N-(4-AMINO-3,4-DIOXO-1-PHENYLBUTAN-2-YL)-4-(2-OXOINDOLIN-4-YL)-1,2,5-THIADIAZOLE-3-CARBOXAMIDE] |
| 3 to 10 µM |  | 3 to 10 µM | > 10 µM | > 25 µM | O=C(NC(Cc1ccccc1)C(=O)CO)c1nsnc1-c1ccccc1 (stereo not drawn) [Compound 111, N-(4-HYDROXY-3-OXO-1-PHENYLBUTAN-2-YL)-4-PHENYL-1,2,5-THIADIAZOLE-3-CARBOXAMIDE] |
| < 3 µM |  | < 3 µM | < 3 µM | > 25 µM | CC(C)n1c(=O)oc2c(-c3nn(C)cc3C(=O)NC(Cc3ccccc3)C(=O)C(N)=O)cccc21 (stereo not drawn) [Compound 114, N-(4-AMINO-3,4-DIOXO-1-PHENYLBUTAN-2-YL)-3-(3-ISOPROPYL-2-OXO-2,3-DIHYDROBENZO[D]OXAZOL-7-YL)-1-METHYL-1H-PYRAZOLE-4-CARBOXAMIDE] |
| < 3 µM |  | < 3 µM | < 3 µM | > 25 µM | Cn1cc(C(=O)NC(Cc2ccccc2)C(=O)C(N)=O)c(-c2cccc3c2OC(C)(C)O3)n1 (stereo not drawn) [Compound 112, N-(4-AMINO-3,4-DIOXO-1-PHENYLBUTAN-2-YL)-3-(2,2-DIMETHYLBENZO[D][1,3]DIOXOL-4-YL)-1-METHYL-1H-PYRAZOLE-4-CARBOXAMIDE] |
